Measured values reported in patent US20080008707A1, “Denatured collagen peptides and uses thereof” (Cell-Matrix, Inc., priority 2006, published 2008).
Square brackets hold non-standard residues; d marks the D form. Ends that are not written are not given here. Hyp = O=C(O)[C@@H]1C[C@@H](O)CN1

Legend:
[1] = test system: D93 binding to human denatured-collagen IV; test: Competition ELISA: synthetic peptides blocking D93 binding to heat denatured collagen IV; settings: average of two studies, vs 1% BSA/PBS alone
Method: (§1) The ELISA was conducted as follows: wells of a 96-well microtiter plate (Immulon, 4 HBX flat-bottomed, Thermo Electron Corporation, Waltham, Mass.) were coated with 100 μL/well of dn-collagen IV at 10 μg/mL in Phosphate Buffered Saline (PBS) overnight at 4° C. The plate was washed 3 times (3×) with PBS containing 0.05% (v/v) Tween-20 (PBST) using an automated plate washer.
(§2) The plate was blocked by adding 300 μL/well of 1% BSA (w/v) in PBS for 1 hour at 25° C. followed by washing 3× in PBST as above.
(§3) Solutions of D93 or HUI77 were prepared with various concentrations of peptide or antibody inhibitor and incubate for 15 minutes. D93 or HUI77 was prepared at 200 ng/mL in 1% BSA/PBS.
(§4) For antibody blocking studies using synthetic peptides: peptide inhibitor stock solutions were prepared at 2 mM, 0.2 mM, 0.02 mM, and 0.002 mM in 1% BSA/PBS. 500 μL of a 2 mM peptide solution in 1% BSA/PBS was prepared and diluted 1:10 in 500 μL a total of three times to make peptide inhibitor concentrations.
(§5) 200 μL of D93 or HUI77 at 200 ng/mL solution was combined with 200 μL of peptide or antibody inhibitor solution and incubated for 15 minutes at room temperature.
(§6) D93 or HUI77 with various concentrations of inhibitors (2 mM, 0.2 mM, 0.02 mM, and 0.002 mM) were added to microplate wells and incubated for 1 hour at 25° C. The plate was washed 3× in PBST as above.
(§7) To each microtiter plate well, 100 μL of diluted anti-human IgG or anti-mouse IgM conjugated to horseradish peroxidase (HRP) in PBST was added and incubated for one hour at 25° C.: (a) for D93: Goat anti-human IgG-HRP (Jackson ImmunoResearch, Catalog No. 109-035-088) was used at 1:20,000 and (b) for HUI77: Goat anti-mouse IgM-HRP was used at 1:4,000. Plates were washed 3× in PBST as above.
(§8) Tetramethylbenzidine (TMB) substrate (100 μL; Pierce Chemicals)) was added to wells and the plates were allowed to develop at room temperature for 15 minutes in the dark. Substrate development was stopped by adding 50 μL/well of 2N H2SO4. The microtiter […] plates were read at 450 nm within five minutes of adding the H2SO4. Reactivity was measured with a microplate reader (Molecular Devices, Sunnyvale, Calif.) at a wavelength of 450 nm and analyzed using SOFTMax® PRO4.0 (Molecular Devices). All samples were tested in triplicate.
(§9) Individual peptides with amino acid substitutions and deletions were also synthesized based on the primary and secondary peptide arrays. […] The inhibitory activity of the individual peptides was tested by ELISA as previously described to measure binding of D93 or HUI77 to denatured collagen where peptides and antibodies were prepared at a 2× concentration and pre-incubated for 15 minutes prior to adding to microtiter plates coated with dn-collagen.
(§10) 96-well plates were coated with 100 μL/well of denatured (dn) collagen IV at 10 μg/mL in phosphate buffered saline (PBS) overnight at 4° C. followed by washing the plates in an automated plate washer 3 times in PBS containing 0.05% (v/v) Tween-20 (PBST). Non-specific binding was prevented by blocking the wells by adding 300 μL/well of 1% bovine serum albumin (BSA) (w/v) in PBS for 1 hour (hr) at 25° C. The plates were washed as above.
(§11) Solutions of D93 and HUI77 antibodies were prepared with various concentrations of inhibitor and incubated for 15 minutes. Briefly, 20 mLs of D93 or HUI77 were prepared at 200 ng/mL in 1% BSA/PBS. Solutions of peptide inhibitors (2 mM, 0.2 mM, […]) were prepared in 1% BSA/PBS. Equal volumes of antibodies and peptide inhibitors were combined: 200 μL of D93 or HUI77 (200 ng/mL solution) with 200 μL of each peptide solution.
(§12) 100 μL/well of D93 or HUI77 at 100 ng/mL with various concentrations of inhibitors were added to the wells in triplicate and incubated for 1 hour at 25° C. The plates were washed as described above.
(§13) 100 μL/well of secondary horseradish peroxidase (HRP)-conjugated antibody in PBST was added to each well and incubated for 1 hour (hr) at 25° C. […]

[2] = test system: HUI77 binding to denatured collagen IV; test: Competition ELISA: synthetic peptides blocking HUI77 binding to heat denatured collagen IV; parameters: species or system human; settings: average of two studies
Method: as §1, §2, §3, §4, §5, §6, §7, §8, §9, §10, §11, §12, §13

[3] = peptide inhibitor concentration 10 μM, listed as 2 (18), 10 µM
[4] = peptide inhibitor concentration 100 μM, listed as 2 (18), 100 µM
[5] = peptide inhibitor concentration 1000 μM, listed as 2 (18), 1000 µM
[6] = peptide inhibitor concentration 1 μM
[7] = peptide inhibitor concentration 10 μM
[8] = peptide inhibitor concentration 100 μM
[9] = peptide inhibitor concentration 1000 μM

Substance | % INHIBITION OF BINDING OF D93 TO HUMAN DENATURED-COLLAGEN IV ([1]; peptide inhibitor concentration 1 μM, listed as 2 (18), 1 µM) | % INHIBITION OF BINDING OF D93 TO HUMAN DENATURED-COLLAGEN IV [1, 3] | % INHIBITION OF BINDING OF D93 TO HUMAN DENATURED-COLLAGEN IV [1, 4] | % INHIBITION OF BINDING OF D93 TO HUMAN DENATURED-COLLAGEN IV [1, 5] | % INHIBITION OF BINDING OF HUI77 TO DENATURED COLLAGEN IV [2, 3] | % INHIBITION OF BINDING OF HUI77 TO DENATURED COLLAGEN IV [2, 4] | % INHIBITION OF BINDING OF HUI77 TO DENATURED COLLAGEN IV [2, 5] | % INHIBITION OF BINDING OF D93 TO HUMAN DENATURED-COLLAGEN IV [1, 6] | % INHIBITION OF BINDING OF D93 TO HUMAN DENATURED-COLLAGEN IV [1, 7] | % INHIBITION OF BINDING OF D93 TO HUMAN DENATURED-COLLAGEN IV [1, 8] | % INHIBITION OF BINDING OF D93 TO HUMAN DENATURED-COLLAGEN IV [1, 9] | % INHIBITION OF BINDING OF HUI77 TO DENATURED COLLAGEN IV [2, 7] | % INHIBITION OF BINDING OF HUI77 TO DENATURED COLLAGEN IV [2, 8] | % INHIBITION OF BINDING OF HUI77 TO DENATURED COLLAGEN IV [2, 9]
LPGPPGPPGPY [SEQ ID NO: 18] | 6% | 2% | 7% | 46% | 5.5% | 6.5% | 4.5% | – | – | – | – | – | – | –
LPGFPGC [SEQ ID NO: 37, reference compound] | – | – | – | – | – | – | – | 8% | 3.5% | 1% | 6.5% | 7% | 7.5% | 8.5%

Second part, the substance after the results:

% INHIBITION OF BINDING OF D93 TO HUMAN DENATURED-COLLAGEN IV ([1]; peptide inhibitor concentration 1 μM, listed as 2 (18), 1 µM) | % INHIBITION OF BINDING OF D93 TO HUMAN DENATURED-COLLAGEN IV [1, 3] | % INHIBITION OF BINDING OF D93 TO HUMAN DENATURED-COLLAGEN IV [1, 4] | % INHIBITION OF BINDING OF D93 TO HUMAN DENATURED-COLLAGEN IV [1, 5] | % INHIBITION OF BINDING OF HUI77 TO DENATURED COLLAGEN IV [2, 3] | % INHIBITION OF BINDING OF HUI77 TO DENATURED COLLAGEN IV [2, 4] | % INHIBITION OF BINDING OF HUI77 TO DENATURED COLLAGEN IV [2, 5] | % INHIBITION OF BINDING OF D93 TO HUMAN DENATURED-COLLAGEN IV [1, 6] | % INHIBITION OF BINDING OF D93 TO HUMAN DENATURED-COLLAGEN IV [1, 7] | % INHIBITION OF BINDING OF D93 TO HUMAN DENATURED-COLLAGEN IV [1, 8] | % INHIBITION OF BINDING OF D93 TO HUMAN DENATURED-COLLAGEN IV [1, 9] | % INHIBITION OF BINDING OF HUI77 TO DENATURED COLLAGEN IV [2, 7] | % INHIBITION OF BINDING OF HUI77 TO DENATURED COLLAGEN IV [2, 8] | % INHIBITION OF BINDING OF HUI77 TO DENATURED COLLAGEN IV [2, 9] | Substance
– | – | – | – | – | – | – | 11.5% | 40.5% | 87.5% | 93.5% | 10.5% | 12.5% | 63% | PGPPGPPGP (PGP[Hyp]GP[Hyp]GP) [SEQ ID NO: 29]
– | – | – | – | – | – | – | 10.5% | 6% | 8% | 32% | 7% | 14.5% | 75% | L-Hyp-G-F-Hyp-G (L[Hyp]GF[Hyp]G) [SEQ ID NO: 23]
– | – | – | – | – | – | – | 9.5% | 3.5% | 2.5% | 13.5% | 8% | 10.5% | 8.5% | LPGSPG (L[Hyp]GS[Hyp]G) [SEQ ID NO: 26]
– | – | – | – | – | – | – | 8% | 6.5% | 6.5% | 46.5% | 6% | 9.5% | 17.5% | LPGLPG (L[Hyp]GL[Hyp]G) [SEQ ID NO: 25]
